The source of these data is patent US6638919B2, “Antiviral purine derivatives” (University College Cardiff Consultants Limited, priority 2001, dated 2003).

pEC50: −log10 of the molar value. “Also recorded” adds a separate entry of the source. Like-named read-outs stand apart in the source and are kept apart here.

Data set [1] has as its system HIV-2. The conditions noted are these: Table II, known data disclosed in PCT/GB96/00580; read-out: EC50/μM HIV-2 CEM; cited from earlier work.
The subject of data set [2] is HIV-1. The conditions noted are these: read-out: EC50/μM HIV-1 CEM; Table II, known data disclosed in PCT/GB96/00580; cited from earlier work.
For data set [3], the system named is CEM cells. The conditions noted are these: cited from earlier work.
The nature of data set [4]: Solid state stability of salt forms. The format is physicochemical. The conditions noted are these: % of parent (AUC) after two weeks at 60° C. The source says: (§1) The solubility and solution/solid state stability of three salt forms of (1S, 4R)-4-[2-amino-5(cyclopropylamino)-9(H)-purin-9-yl]-2-cyclopentene-1-methanol O-(phenyl ethoxy-L-alaninyl) phosphate
The next data set can be described thus: Solid type of salt forms. The format is physicochemical.
Data set [5] is described as follows: Solution stability of salt forms. Particulars: % of parent (AUC) after 27 hr at room temperature. The format is physicochemical.
From the text: as §1

Data set [6] can be described thus: Biological stability in heparinised human plasma.
Experimental: (§5) Each compound was incubated in normal heparinised human plasma at 37° C. for 4 hours. […] Drug concentrations were then determined by LC/MS/MS analysis using standard methods.
Data set [7] concerns HIV-2. The experiment in a line: Inhibition of HIV-2 giant cell formation in CEM cells. It counts as cell-based. The conditions noted are these: for pEC50: Table III, EC50 for inhibition of HIV-2 in CEM cells, read-out: HIV2 CBM; for EC50: CEM cells, giant cell formation after 4 days, Tables I and II, read-out: EC50/μM HIV-2 CEM. As to the method:
(§2) Then 100 μL of the infected cell suspension was transferred to microtiter plate wells and mixed with 100 μL of the appropriate dilutions of the test compounds.
HIV1 CEM: EC50 in μM for inhibition of […] in CEM cells.
HIV2 CEM: EC50 in μM for inhibition of HIV-2 in CEM cells

For data set [8], the system named is CEM cells. The experiment in a line: Toxicity to mock-infected CEM cells (CC50). It counts as cell-based. The procedure: as §2
(§3) CC50 CEM: CC50 in μM for toxicity to CEM cells.
(§4) CC50 CEM: CC50 μM for toxicity to CEM cells

Data set [9] can be described thus: Acid stability, dilute HCl pH1, simulated stomach conditions. Particulars: 0.1N HCl pH1, 25° C. The format is physicochemical. The procedure: Compounds were tested for their stability towards acid-mediated hydrolytic decomposition employing a test designed to simulate stomach conditions. Each compound was incubated in dilute HCl of pH1 for 24 hours at 25° C. 0.3 mg of compound were added to 1 mL of 0.1N HCl at 25° C. HPLC was run immediately for time=0 and at intervals up to approximately 24 hours.

Data set [10] has as its system HIV-1. The experiment in a line: Inhibition of HIV-1 giant cell formation in CEM cells. It counts as cell-based. Particulars: for EC50: CEM cells, giant cell formation after 4 days, Tables I and II, read-out: EC50/μM HIV-1 CEM. As to the method:
as §2
HIV 1 CEM: EC50 in μM for inhibition of HIV1 in CEM cells

For data set [11] the following is noted: human, plasma.
Experimental: as §5
Data set [12] can be described thus: Toxicity to mock-infected CEM cells (CC50). Particulars: human; mock-infected CEM cells; Tables I and II; read-out: CC50/μM CEM. It counts as cell-based. The procedure: as §2, §3, §4
Data set [13] has as its system HIV-1. The experiment in a line: Inhibition of HIV-1 giant cell formation in CEM cells. It counts as cell-based. The conditions noted are these: mean increase in potency of phosphoramidate versus its parent nucleoside for HIV 1 and HIV 2.
Data set [14] concerns MSV. The experiment in a line: Inhibition of MSV. It counts as cell-based. Particulars: Table III; inhibition of MSV; read-out: EC50 MSV. As to the method: EC50 MSV: EC50 μM for inhibition of MSV
For data set [15], the system named is MSV. The experiment in a line: Minimum cytotoxic concentration in MSV assay. The format is cell-based. More on the design: unit not given here. The conditions noted are these: Table III. The source says: MCC MSV: minimum cytotoxic concentration in MSV essay.
Setting [16] is: heparinised human plasma, 37° C.

As for `CCOC(=O)[C@H](C)NP(=O)(OC[C@@H]1C=C[C@H](n2cc(C)c(=O)[nH]c2=O)O1)Oc1ccccc1` (stereo partly shown) [Compound 951, 2′, 3′-dideoxy-2′, 3′-didehydrothymidine 5′-(phenylexthoxyalaninyl) phosphoramidate], the EC50 is 0.07 µM in the data set with HIV-2 [1] and 0.1 µM with HIV-1 [2]. Also, the CC50 in the data set with CEM cells [3] is 5.5 µM.

With `COC(=O)C[C@H](NP(=O)(OC[C@@H]1C=C[C@H](n2cc(C)c(=O)[nH]c2=O)O1)Oc1ccccc1)C(=O)OC` (stereo partly shown) [Compound 1078, 2′, 3′-dideoxy-2′, 3′-didehydrothymidine 5′-(phenyldimethoxyaspartyl) phosphoramidate], the EC50 in the data set on HIV-2 [1] was 0.65 µM; in the data set with HIV-1 [2] it was 0.55 µM. In addition, the CC50 with CEM cells [3] was 209 µM.

Take `CCOC(=O)[C@H](C)NP(=O)(OC[C@@H]1C=C[C@H](n2cnc3c(NC4CC4)nc(N)nc32)C1)Oc1ccccc1.O=C(O)/C=C/C(=O)O` (stereo partly drawn) [Example 3, (1S,4R)-4-(2-Amino-6cyclopropylamino-9(H)-purin-9-yl)-2-cyclopentene-1-methanol O-(phenylethoxy-L-alaninyl) phosphate Fumarate Salt]: the “Solid State Stability (%)” value in data set [4] is on record as 97.1%. Also, in the data set “Solid type of salt forms”, the “Solid Type” value is “crystals”. Besides, in data set [5], the “Stability (%) 0.1 N HCl” value worked out at 70.0%, the “Stability (%) HPMC/Tween” value was 98.3% and the “Stability (%) PBS” value is reported as 98.5%.

On to `CCOC(=O)[C@H](C)NP(=O)(OC[C@@H]1C=C[C@H](n2cnc3c(NC4CC4)nc(N)nc32)C1)Oc1ccccc1.O=C(O)CCCC(=O)O` (stereo partly drawn) [Example 4, (1S,4R)-4-(2-Amino-6-cyclopropylamino-9(H)-purin-9-yl)-2-cyclopenten-1-methanol O-(phenylethoxy-L-alaninyl) phosphate Glutarate Salt], for which, in data set [4], the “Solid State Stability (%)” value is 98.9%. The “Solid Type” value in the data set “Solid type of salt forms” is given as “crystals”. Moreover, in data set [5], the “Stability (%) 0.1 N HCl” value is given as 69.3%, the “Stability (%) HPMC/Tween” value is on record as 98.6% and the “Stability (%) PBS” value was determined as 99.9%.

Regarding `CCOC(=O)[C@H](C)NP(=O)(OC[C@@H]1C=C[C@H](n2cnc3c(NC4CC4)nc(N)nc32)C1)Oc1ccccc1` (stereo partly drawn) [Compound 1587, (1S,4R)-4-(2-amino-6cyclopropylamino-9H-purin-9-yl)-2-cyclopentene-1-methaanol O-[phenyl-(ethoxy-L-alaninyl)]-phosphate], the “Half-life” value in [6] (setting [16]) was found to be 26 h. Further, the “% Remaining at 4 hours” value in data set [6] (heparinised human plasma, 37° C., 4 hours) is recorded as 91%. Further, the “stability advantage over each of compounds 1001 and 1093” value in data set [6] (human plasma, Table V data) turned out to be 6 fold. For the same compound, in the data set with HIV-2 [7], the pEC50 is 7.22. The “Solid State Stability (%)” value in [4] is given as 93.7%. Also, in the data set on CEM cells [8] (Table III, toxicity to CEM cells, read-out: CC50 CEN), the CC50 is 12100 nM. Moreover, the “Solid Type” value in “Solid type of salt forms” is on record as “Amorphous; also recorded: Hygroscopic”. The “acid stability in words” value in data set [9] (after 22 hours) was “remained in tact”. Further, in data set [9] (time 0 hr), the “Compound left (%)” value is 100%. In addition, the “Compound left (%)” value in data set [9] (time 22 hr) is 77%. Also, in data set [5], the “Stability (%) 0.1 N HCl” value stood at 69.1%, the “Stability (%) HPMC/Tween” value is 97.6% and the “Stability (%) PBS” value is 98.5%. In the data set with HIV-1 [10] (Table III, EC50 for inhibition of HIV1 in CEM cells, read-out: HIV1 CBM), the pEC50 was 7.15.

In the case of `COC(=O)C(C)NP(=O)(OC[C@@H]1CC[C@H](n2cnc3c(N)ncnc32)O1)Oc1ccccc1` (stereo partly shown) [Compound 1093, 2′, 3′-dideoxy adenosine 5′-(phenylmethoxyalaninyl) phosphoramidate], the “Half-life” value in data set [6] (setting [16]) worked out at 4.2 h. For the same compound, the “% Remaining at 4 hours” value in [11] was 50%. Also, the “time to degradation in acid” value in [9] is listed as “less than 13 hours”. Besides, the “Compound left (%)” value is reported as 100% in data set [9] (time 0 hr) and 0% in [9] (time 13 hr). Moreover, the EC50 in the data set with HIV-2 [1] was 0.035 µM; in the data set on HIV-1 [2] it was 0.016 µM. Besides, in the data set with CEM cells [3] (read-out: CC50/μM CEM, Table II, known data disclosed in PCT/GB96/00580), the CC50 is 2.57 µM.

Turning to `COC(=O)C(C)NP(=O)(OCC1C=CC(n2cnc3c(=O)[nH]c(N)nc32)C1)Oc1ccccc1` [Example A, (1R, 4S)-9-14-(hydroxymethyl)-2-cyclopenten-2-yl] guanine-5′-[phenyl-(methoxy-L-alaninyl)]-phosphate, reference compound], the EC50 in the data set on HIV-2 [7] (Human immunodeficiency virus 2, CCRF-CEM, 96 h) is 0.85 µM; in the data set with HIV-1 [10] (Human immunodeficiency virus 1, CCRF-CEM, 96 h), 1.3 µM. The CC50 in [12] is 123 µM. Besides, in the data set with HIV-1 [13], the “Fold Improvement” value was 1.9.

For the compound `COC(=O)[C@H](C)NP(=O)(OC[C@@H]1C=C[C@H](n2cnc3c(NC4CC4)nc(N)nc32)C1)Oc1ccccc1` (stereo partly drawn) [Compound 1490, (1S,4R)-4-(2-amino-6-cyclopropylamino-9H-purin-9-yl)-2-cyclopentene-1-methanol O-[phenyl-(methoxy-L-alaninyl)]-phosphate], the EC50 in the data set on HIV-2 [7] came to 0.09 µM; with HIV-1 [10], 0.07 µM. Moreover, the pEC50 was 7.30 with HIV-2 [7] and 5.80 with MSV [14]. The CC50 with CEM cells [8] was 13100 nM. For the same compound, the “Fold Improvement” value with HIV-1 [13] is on record as 30.2. The compound also gave an MCCMSV in the data set on MSV [15] greater than 4.
